Earlier results in US20260015669A1, “COMPOSITIONS AND METHODS FOR DETECTING AND TREATING TUMORS AND/OR CANCERS ASSOCIATED WITH BRAF AND/OR MAP2K1 VARIANTS” (North Carolina State University, priority 2022, published 2026).

Legend:
ΔNVTAP mutants [1] = conditions: human cancer cell lines; RAF dimer inhibitors target the αC-in/DFG-out conformation
ΔNVTAP mutants [2] = biological target: ΔNVTAP mutants (Homo sapiens, UniProt P15056, DEL486-490); conditions: human cancer cell lines; in contrast to V600E mutants; inhibitors target the αC-out/DFG-in conformation
ΔNVTAP mutants (Homo sapiens, UniProt P15056, DEL486-490), sequence (P15056 with tags, fused parts or gaps DEL486-490): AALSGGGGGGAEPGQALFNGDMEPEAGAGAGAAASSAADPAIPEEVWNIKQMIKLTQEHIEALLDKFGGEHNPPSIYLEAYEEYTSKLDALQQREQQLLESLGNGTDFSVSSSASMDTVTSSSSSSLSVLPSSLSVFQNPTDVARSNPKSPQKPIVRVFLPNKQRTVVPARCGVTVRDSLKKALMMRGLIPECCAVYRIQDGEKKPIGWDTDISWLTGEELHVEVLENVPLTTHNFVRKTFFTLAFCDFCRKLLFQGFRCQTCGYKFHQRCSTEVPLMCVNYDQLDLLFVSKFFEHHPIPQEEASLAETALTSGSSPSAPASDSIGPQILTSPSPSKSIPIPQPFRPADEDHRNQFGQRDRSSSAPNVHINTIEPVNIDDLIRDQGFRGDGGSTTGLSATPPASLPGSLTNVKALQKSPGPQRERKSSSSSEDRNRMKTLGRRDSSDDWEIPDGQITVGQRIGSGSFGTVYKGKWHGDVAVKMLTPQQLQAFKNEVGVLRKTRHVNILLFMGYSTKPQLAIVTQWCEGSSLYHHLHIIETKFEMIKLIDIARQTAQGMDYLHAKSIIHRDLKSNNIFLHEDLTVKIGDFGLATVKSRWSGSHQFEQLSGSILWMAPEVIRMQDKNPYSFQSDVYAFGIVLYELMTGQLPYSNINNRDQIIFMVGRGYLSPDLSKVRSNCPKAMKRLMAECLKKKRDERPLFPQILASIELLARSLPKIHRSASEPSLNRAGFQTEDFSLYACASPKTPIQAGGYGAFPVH

| response of ΔNVTAP mutants to BRAF monomer inhibitors (ΔNVTAP mutants [2]) | SMILES | response of mutants with exon 12 in-frame deletions to pan-RAF dimer inhibitors and allosteric MEK inhibitors (ΔNVTAP mutants [1]) |
| --- | --- | --- |
| – | CNc1ncc2cc(-c3cc(NC(=O)NCCC(C)(C)C)c(F)cc3C)c(C)nc2n1 [LY3009120] | susceptible |
| – | Cc1ccc(NC(=O)c2cccc(C(C)(C)C#N)c2)cc1Nc1ccc2ncn(C)c(=O)c2c1 [AZ628] | susceptible |
| resistant | CC(C)(C)c1nc(-c2cccc(NS(=O)(=O)c3c(F)cccc3F)c2F)c(-c2ccnc(N)n2)s1 [dabrafenib] | – |
| – | O=C(c1ccc(F)c(F)c1Nc1ccc(I)cc1F)N1CC(O)([C@@H]2CCCCN2)C1 [cobimetinib] | susceptible |
